Source: patent publication US9931327B2, “Derivatives of 1-phenyl-2-pyridinyl alkyl alcohols as phosphodiesterase inhibitors” (Chiesi Farmaceutici S.p.A., priority 2011, dated 2018)
Structures can show the parent of a compound that is named as a salt. Where two headings read alike, the source gives them in different places.

Tested on: LPS-induced TNF-α release in peripheral blood mononuclear cells (PBMCs)
Experiment: In vitro determination of PDE4 inhibitory activity in the PBMCs assay (LPS-induced TNF-α release)
Format: cell-based, human
Details: PBMC, human PBMCs, LPS 3 ng/ml, 18 hours, read-out: PDE4 inhibition (IC50, 50% inhibition of LPS-induced TNF-α release)
In short: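 Cryopreserved human PBMCs (10^5 cells/well) pre-incubated 30 min with compound (10^−12 to 10^−6 M or 10^−3 to 10^−7 M), then stimulated with LPS 3 ng/ml for 18 h at 37 °C. TNF-α in medium by ELISA; IC50 as mean ± 95% confidence limits.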

CNS(=O)(=O)c1ccc(S(=O)(=O)N2CCSCC2C(=O)O[C@@H](Cc2c(Cl)c[n+]([O-])cc2Cl)c2ccc(OC(F)F)c(OCC3CC3)c2)cc1 (stereo partly drawn) [Compound 81, 3,5-dichloro-4-((2S)-2-(3-(cyclopropylmethoxy)-4-(difluoromethoxy)phenyl)-2-(4-(4-(N-methylsulfamoyl)phenylsulfonyl)thiomorpholine-3-carbonyloxy)ethyl)pyridine 1-oxide] was tested, and the IC50 (TNF-α by ELISA) was 0.1 to 1 nM.

In the case of CN(C)S(=O)(=O)c1cccc(S(=O)(=O)N2CCS[C@H]2C(=O)O[C@@H](Cc2c(Cl)c[n+]([O-])cc2Cl)c2ccc(OC(F)F)c(OCC3CC3)c2)c1 [Compound 97, 3,5-dichloro-4-((S)-2-(3-(cyclopropylmethoxy)-4-(difluoromethoxy)phenyl)-2-((S)-3-(3-(N,N-dimethylsulfamoyl)phenylsulfonyl)thiazolidine-2-carbonyloxy)ethyl)pyridine 1-oxide], the IC50 (TNF-α by ELISA) is reported as < 0.1 nM.

With COc1ccc(S(=O)(=O)N2CCSC2C(=O)O[C@@H](Cc2c(Cl)c[n+]([O-])cc2Cl)c2ccc(OC(F)F)c(OCC3CC3)c2)cc1C(=O)N1CCN(C)CC1 (stereo partly drawn) [Compound 127, 3,5-dichloro-4-((2S)-2-(3-(cyclopropylmethoxy)-4-(difluoromethoxy)phenyl)-2-(3-(4-methoxy-3-(4-methylpiperazine-1-carbonyl)phenylsulfonyl)thiazolidine-2-carbonyloxy)ethyl)pyridine 1-oxide] the IC50 (TNF-α by ELISA) was 0.1 to 1 nM.

In the case of O=C(O[C@@H](Cc1c(Cl)c[n+]([O-])cc1Cl)c1ccc(OC(F)F)c(OCC2CC2)c1)[C@@H]1SCCN1S(=O)(=O)c1ccoc1 [Compound 96, 3,5-dichloro-4-((S)-2-(3-(cyclopropylmethoxy)-4-(difluoromethoxy)phenyl)-2-((S)-3-(furan-3-ylsulfonyl)thiazolidine-2-carbonyloxy)ethyl)pyridine 1-oxide], the IC50 (TNF-α by ELISA) is reported as < 0.1 nM.

Molecule Nc1ccc(S(=O)(=O)N2CCSC2C(=O)O[C@@H](Cc2c(Cl)c[n+]([O-])cc2Cl)c2ccc(OC(F)F)c(OCC3CC3)c2)cc1 (stereo partly drawn) [Compound 135, 4-((2S)-2-(3-(4-aminophenylsulfonyl)thiazolidine-2-carbonyloxy)-2-(3-(cyclopropylmethoxy)-4-(difluoromethoxy)phenyl)ethyl)-3,5-dichloropyridine 1-oxide] has an IC50 (TNF-α by ELISA) of 0.1 to 1 nM.

O=C(O[C@@H](Cc1c(Cl)c[n+]([O-])cc1Cl)c1ccc(OC(F)F)c(OCC2CC2)c1)[C@@H]1CCCN1S(=O)(=O)c1ccccc1 [Compound 86, 3,5-dichloro-4-((S)-2-(3-(cyclopropylmethoxy)-4-(difluoromethoxy)phenyl)-2-((S)-1-(phenylsulfonyl)pyrrolidine-2-carbonyloxy)ethyl)pyridine 1-oxide] was tested, and the IC50 (TNF-α by ELISA) was 0.1 to 1 nM.

CN(C)C(=O)c1cccc(CC(=O)N2CCS[C@H]2C(=O)O[C@@H](Cc2c(Cl)c[n+]([O-])cc2Cl)c2ccc(OC(F)F)c(OCC3CC3)c2)c1 [Compound 198, 3,5-dichloro-4-((S)-2-(3-(cyclopropylmethoxy)-4-(difluoro-methoxy)phenyl)-2-((S)-3-(2-(3-(dimethylcarbamoyl)phenyl)acetyl)-thiazolidine-2-carbonyloxy)ethyl)pyridine 1-oxide] gave an IC50 (TNF-α by ELISA) of 0.1 to 1 nM.

In the case of NC(=O)Nc1cccc(S(=O)(=O)N2CCS[C@H]2C(=O)O[C@@H](Cc2c(Cl)c[n+]([O-])cc2Cl)c2ccc(OC(F)F)c(OCC3CC3)c2)c1 [Compound 269, 3,5-dichloro-4-((S)-2-(3-(cyclopropylmethoxy)-4-(difluoromethoxy)phenyl)-2-((S)-3-(3-ureidophenylsulfonyl)thiazolidine-2-carbonyloxy)ethyl)pyridine 1-oxide], the IC50 (TNF-α by ELISA) is reported as < 0.1 nM.

Nc1ccc(S(=O)(=O)N2CSC[C@H]2C(=O)O[C@@H](Cc2c(Cl)c[n+]([O-])cc2Cl)c2ccc(OC(F)F)c(OCC3CC3)c2)cc1 [Compound 138, 4-((S)-2-((R)-3-(4-aminophenylsulfonyl)thiazolidine-4-carbonyloxy)-2-(3-(cyclopropylmethoxy)-4-(difluoromethoxy)phenyl)ethyl)-3,5-dichloropyridine 1-oxide] showed an IC50 (TNF-α by ELISA) of 0.1 to 1 nM.

For O=C(O[C@@H](Cc1c(Cl)c[n+]([O-])cc1Cl)c1ccc(OC(F)F)c(OCC2CC2)c1)C1SCCN1S(=O)(=O)c1ccc(N2CCOCC2)nc1 (stereo partly drawn) [Compound 74, 3,5-dichloro-4-((2S)-2-(3-(cyclopropylmethoxy)-4-(difluoromethoxy)phenyl)-2-(3-(6-morpholinopyridin-3-ylsulfonyl)thiazolidine-2-carbonyloxy)ethyl)pyridine 1-oxide], the IC50 (TNF-α by ELISA) was < 0.1 nM.

Work on Cc1ccc(S(=O)(=O)N2CCSC2C(=O)O[C@@H](Cc2c(Cl)c[n+]([O-])cc2Cl)c2ccc(OC(F)F)c(OCC3CC3)c2)c(C)c1 (stereo partly drawn) [Compound 61, 3,5-dichloro-4-((2S)-2-(3-(cyclopropylmethoxy)-4-(difluoromethoxy)phenyl)-2-(3-(2,4-dimethylphenylsulfonyl)thiazolidine-2-carbonyloxy)ethyl)pyridine 1-oxide] yielded an IC50 (TNF-α by ELISA) of 0.1 to 1 nM.

With Cc1cc(F)ccc1S(=O)(=O)N1CCSC1C(=O)O[C@@H](Cc1c(Cl)c[n+]([O-])cc1Cl)c1ccc(OC(F)F)c(OCC2CC2)c1 (stereo partly drawn) [Compound 69, 3,5-dichloro-4-((2S)-2-(3-(cyclopropylmethoxy)-4-(difluoromethoxy)phenyl)-2-(3-(4-fluoro-2-methylphenylsulfonyl)thiazolidine-2-carbonyloxy)ethyl)pyridine 1-oxide] the IC50 (TNF-α by ELISA) was 0.1 to 1 nM.

Work on CN(C)C(=O)c1cccc(S(=O)(=O)N2CC(C(=O)O[C@@H](Cc3c(Cl)c[n+]([O-])cc3Cl)c3ccc(OC(F)F)c(OCC4CC4)c3)C2)c1 [Compound 281, (S)-3,5-dichloro-4-(2-(3-(cyclopropylmethoxy)-4-(difluoromethoxy)phenyl)-2-(1-(3-(dimethylcarbamoyl)phenylsulfonyl)azetidine-3-carbonyloxy)ethyl)pyridine 1-oxide] yielded an IC50 (TNF-α by ELISA) of 0.1 to 1 nM.

CNS(=O)(=O)c1cccc(S(=O)(=O)N2CCSC2C(=O)O[C@@H](Cc2c(Cl)c[n+]([O-])cc2Cl)c2ccc(OC(F)F)c(OCC3CC3)c2)c1 (stereo partly drawn) [Compound 118, 3,5-dichloro-4-((2S)-2-(3-(cyclopropylmethoxy)-4-(difluoromethoxy)phenyl)-2-(3-(3-(N-methylsulfamoyl)phenylsulfonyl)thiazolidine-2-carbonyloxy)ethyl)pyridine 1-oxide] was tested, and the IC50 (TNF-α by ELISA) was < 0.1 nM.

For O=C(O[C@@H](Cc1c(Cl)c[n+]([O-])cc1Cl)c1ccc(OC(F)F)c(OCC2CC2)c1)[C@H]1NCCS1 [Compound 6, 3,5-dichloro-4-((S)-2-(3-(cyclopropylmethoxy)-4-(difluoromethoxy)phenyl)-2-((S)-thiazolidine-2-carbonyloxy)ethyl)pyridine 1-oxide hydrochloride], the IC50 (compounds of formula (II)) was 0.1 to 1 nM.

For COc1cc([C@H](Cc2c(Cl)c[n+]([O-])cc2Cl)OC(=O)[C@@H]2SCCN2S(=O)(=O)c2cccc(C(=O)N(C)C)c2)ccc1OC(F)F [Compound 299, 3,5-dichloro-4-((S)-2-(4-(difluoromethoxy)-3-methoxyphenyl)-2-((S)-3-(3-(dimethylcarbamoyl)phenylsulfonyl)thiazolidine-2-carbonyloxy)ethyl)pyridine 1-oxide], the IC50 (TNF-α by ELISA) was < 0.1 nM.

Molecule O=C(O[C@@H](Cc1c(Cl)c[n+]([O-])cc1Cl)c1ccc(OC(F)F)c(OCC2CC2)c1)[C@@H]1SCCN1C(=O)c1ccc(CN2CCOCC2)cc1 [Compound 39, 3,5-dichloro-4-((S)-2-(3-(cyclopropylmethoxy)-4-(difluoromethoxy)phenyl)-2-((S)-3-(4-(morpholinomethyl)benzoyl)thiazolidine-2-carbonyloxy)ethyl)pyridine 1-oxide] has an IC50 (TNF-α by ELISA) of 0.1 to 1 nM.

Work on CN(C)C(=O)c1cccc(S(=O)(=O)N2CCN(CC(=O)O[C@@H](Cc3c(Cl)c[n+]([O-])cc3Cl)c3ccc(OC(F)F)c(OCC4CC4)c3)CC2)c1 [Compound 121, (S)-3,5-dichloro-4-(2-(3-(cyclopropylmethoxy)-4-(difluoromethoxy)phenyl)-2-(2-(4-(3-(dimethylcarbamoyl)phenylsulfonyl)piperazin-1-yl)acetoxy)ethyl)pyridine 1-oxide] yielded an IC50 (TNF-α by ELISA) of 0.1 to 1 nM.
